# Reference: publication doi:10.1101/2025.01.23.634444v1, “The histidine kinase VraS orchestrates the cell-wall stress response in Staphylococcus aureus via its direct interaction with glycopeptides and β-lactams” (biorxiv, 2025)
# Legend:
# VraS (VraS-H6x) [1] = biological target: T1, VraS (VraS-H6x) (Staphylococcus aureus, UniProt A0A0H2XJC3); assay: saturation transfer difference NMR; assay type: binding; design: full-length, C-terminal His6 tag kept, codon-optimised synthetic gene, pET24a(+), expressed in E. coli BL21 Star (DE3) membranes, purified in DDM, reconstituted in liposomes; 347 residues, 40,867 Da tagged; dimer in DDM; settings: 20 µM VraS, 400 µM ampicillin, sodium phosphate pH 7.4, 280 mM NaCl, 6 mM KCl, 0.01% DDM, 10% D2O
# VraS (VraS-H6x) [2] = biological target: T1, VraS (VraS-H6x); assay: biochemical
IC50 (VraS (VraS-H6x) [2]),SMILES,STD (VraS (VraS-H6x) [1])
,CC1(C)S[C@@H]2[C@H](NC(=O)[C@H](N)c3ccccc3)C(=O)N2[C@H]1C(=O)O [ampicillin],the difference spectrum demonstrated the interaction of ampicillin with VraS
1.6 ± 0.3 mM,CN[C@H](CC(C)C)C(=O)N[C@H]1C(=O)N[C@@H](CC(N)=O)C(=O)N[C@H]2C(=O)N[C@H]3C(=O)N[C@H](C(=O)N[C@H](C(=O)O)c4cc(O)cc(O)c4-c4cc3ccc4O)[C@H](O)c3ccc(c(Cl)c3)Oc3cc2cc(c3O[C@@H]2O[C@H](CO)[C@@H](O)[C@H](O)[C@H]2O[C@H]2C[C@](C)(N)[C@H](O)[C@H](C)O2)Oc2ccc(cc2Cl)[C@H]1O [vancomycin],
